Ki and Km data for two compounds are collected here from publication PMC4554599 (Bipolar disorders, 2014).

By Ki is commonly meant the equilibrium dissociation constant of an inhibitor or competing ligand from its target. Read a low Ki as tighter binding. By Km is commonly meant the substrate concentration at which the rate is half of its maximum.

The structures appear in SMILES notation.

Assay [1] addresses T1, acyl-CoA synthetase-4 (Acsl4) (Rattus norvegicus, UniProt O35547). It is filed as biochemical.
Assay [2] deals with T1, acyl-CoA synthetase-4 (Acsl4). Nature of the assay: Michaelis-Menten kinetics, […]AA to AA-CoA conversion. The class given is biochemical.

T1 sequence (O35547 whole entry): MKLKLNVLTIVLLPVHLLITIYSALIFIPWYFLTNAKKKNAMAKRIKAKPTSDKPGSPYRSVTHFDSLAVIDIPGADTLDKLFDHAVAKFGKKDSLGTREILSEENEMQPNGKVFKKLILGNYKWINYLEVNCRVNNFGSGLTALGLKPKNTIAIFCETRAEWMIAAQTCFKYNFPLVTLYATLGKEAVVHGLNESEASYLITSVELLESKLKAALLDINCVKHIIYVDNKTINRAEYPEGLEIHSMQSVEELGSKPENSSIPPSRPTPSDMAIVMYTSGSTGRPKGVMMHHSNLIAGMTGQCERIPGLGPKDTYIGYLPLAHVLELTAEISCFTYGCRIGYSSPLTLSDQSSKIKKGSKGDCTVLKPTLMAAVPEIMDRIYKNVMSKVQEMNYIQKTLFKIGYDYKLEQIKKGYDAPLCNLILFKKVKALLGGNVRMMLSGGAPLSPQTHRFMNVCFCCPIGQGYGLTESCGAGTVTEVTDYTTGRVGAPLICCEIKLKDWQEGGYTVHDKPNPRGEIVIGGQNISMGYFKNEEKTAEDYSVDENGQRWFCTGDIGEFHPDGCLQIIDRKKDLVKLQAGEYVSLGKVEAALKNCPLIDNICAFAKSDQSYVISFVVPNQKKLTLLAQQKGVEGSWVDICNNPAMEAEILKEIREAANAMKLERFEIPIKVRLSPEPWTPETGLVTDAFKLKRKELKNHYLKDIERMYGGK

In turn, `CCC(C)C(CC)C(N)=O` (racemic) [VCD, 2-ethyl-3-methyl pentanamide] returned a Ki in assay [1] of 6.38 ± 0.63 mM.

For the compound `CCCCC/C=C\C/C=C\C/C=C\C/C=C\CCCC(=O)O` [AA, arachidonic acid], the Michaelis-Menten constant (Km) in assay [2] was determined as 4.63 ± 0.67 µM.
